What follows are sequences tested on Myo5 SH3 domain (assay: SPOT analysis of cellulose-bound peptides (WISE), Myo5 SH3 domain (Dataset S4)). Conditions: SPOT analysis of cellulose-bound 14-mer yeast proteome peptides, Myo5 SH3 domain; normalized value; mean where the peptide was synthesized more than once.
Format: binding, Saccharomyces cerevisiae

In order of falling “The normalized value in BLU units” value:
1. TGKPRKTPRPPFPF  1192.8 BLU
2. SRSKRSKPLPPQLL  884.3 BLU
3. TLFRFIVPFNPYFS  881.8 BLU
4. SRVTRKRPREPKST  829.0 BLU
5. SKRMKALPKGPAAL  821.6 BLU
6. SLISKRNPCYPYGI  483.2 BLU
7. SKYAKLDPSTPVSL  457.3 BLU
8. TIEARVHPEPPNKP  374.9 BLU
9. SWRSLTKPKIPLYK  356.9 BLU
10. TEDGFVIPALPAAV  290.4 BLU
11. SLVKFSCPMTPLLE  248.6 BLU
12. TELNLSCPNVPGKP  227.7 BLU
13. SLKNRDGPITPSTI  215.1 BLU
14. TLDEKECPSVPPTV  211.5 BLU
15. SPKFLNSPDLPERT  182.8 BLU
16. SENGRLTPGLPRSY  169.8 BLU
17. TASQLQNPPPPPST  168.2 BLU
18. SPLSWSGPLTPPTF  168.0 BLU
19. TKAKKEKPKPPKPI  157.7 BLU
20. SPVPLGSPRGPLPV  135.1 BLU
21. SLQQFYNPESPIQP  131.1 BLU
22. TAWDMVPPYSPLSE  126.6 BLU
23. TEEILPTPVQPGGH  121.0 BLU
24. TLHELGVPITPIAF  118.6 BLU
25. SFRELWQPVDPSRE  97.3 BLU
26. SVDPKNYPDAPLEG  91.1 BLU
27. TAPIHSTPKPPPND  77.7 BLU
28. TELLKTLPFYPTPS  77.3 BLU
29. SPNDHSDPSCPCNR  76.1 BLU
30. SKVNKVAPDHPFIQ  72.1 BLU
31. SWAVLPVPGGPVMY  69.2 BLU
32. SPSQYQYPSQPALS  65.2 BLU
33. SVNIKCWPLKPSNF  56.5 BLU
34. SELYYEGPETPTPS  50.5 BLU
35. SLCALVGPVIPHTI  28.4 BLU
36. TLATLTEPKLPKSY  18.0 BLU

Same assay, conditions: SPOT analysis of cellulose-bound peptides probed with Myo5 SH3 domain; normalized value

In order of rising “The normalized value in BLU units (SPOT analysis, Myo5 SH3)” value:
1. SFDYLFHPFVPCTI  23.1 BLU
2. SPSTHAAPVTPIIS  53.3 BLU
3. SENYLVKPTIPGTT  61.5 BLU
4. SLAVYNIPLFPDDP  91.7 BLU
5. SFVHLTEPSQPLSD  99.7 BLU
6. SPVNLLKPFNPTLP  122.9 BLU
7. TLIEYMGPAPPKGS  133.3 BLU
8. SLDNFYNPLGPEDR  142.7 BLU
9. SLISMETPEQPHQQ  146.8 BLU
10. SPFSLFIPTIPATT  151.7 BLU
11. TLEWLLTPYTPGDD  163.5 BLU
12. TFRDMDLPQHPVIH  188.2 BLU
13. SPRCLPTPILPSMS  192.8 BLU
14. SFVGFPKPLLPRNH  205.1 BLU
15. SFTPFNRPSDPSNG  208.5 BLU
16. SFRKLASPSNPNFF  208.8 BLU
17. TEGKYAPPSQPSMA  222.8 BLU
18. TFSIYSIPSKPGEC  226.8 BLU
19. SPRHYNVPSSPIAP  232.7 BLU
20. SLFPLKTPISPGTS  239.2 BLU
21. SETSHHSPSAPFQR  257.2 BLU
22. SENRLRTPLKPLVN  272.3 BLU
23. SPKKLASPRTPNAN  276.2 BLU
24. SFTRMPLPTPPIEG  287.1 BLU
25. SLLIHSLPRKPLLM  314.4 BLU
26. TAAELQAPPPPPSS  315.2 BLU
27. SPSDFNKPDLPELI  316.9 BLU
28. SPKPFSKPQEPVKA  359.1 BLU
29. SPFTFLFPFLPTII  366.0 BLU
30. SPSTMDFPKLPSFQ  466.9 BLU
31. TLKKFVLPCLPRKN  504.4 BLU
32. SWLTMLPPMAPLLS  504.9 BLU
33. SPKKHVSPSRPPSV  1427.8 BLU

Same assay, conditions: SPOT analysis of membrane-bound peptides, Myo5 SH3 domain; normalized value (see methods)

In order of falling “The normalized value in BLU units” value:
1. TGYPRYFPQPPVQR  5858.1 BLU
2. SKNWKLPPRLPHRA  5572.0 BLU
3. SKIKRSRPPPPPMD  5408.9 BLU
4. SMAMRPIPPLPTES  1326.7 BLU
5. TKKRKLGPKAPNPL  693.8 BLU
6. SQKKKALPKQPKAS  492.9 BLU
7. SGSGRRYPQTPSYY  435.6 BLU
8. SETARKVPPIPTQI  420.1 BLU
9. TASGKTSPILPLQN  290.5 BLU
10. TILERLTPLVPNNL  249.4 BLU
11. TELLRIIPEMPKDL  228.1 BLU
12. SKDKKTKPTPPPKP  179.5 BLU
13. TEFSRPIPPTPSGF  163.0 BLU
14. SLLAKYQPSLPLVE  162.4 BLU
15. TDLGKDIPFFPSSE  146.5 BLU
16. SLIPKIEPAEPTYS  85.4 BLU
17. SYMDKIYPDLPNDK  83.0 BLU
18. TEIYKLEPREPQVD  29.1 BLU
19. TKRQRGEPSEPQQD  27.7 BLU

Same assay, conditions: SPOT analysis of membrane-synthesized peptides probed with Myo5 SH3 domain; normalized value

In order of falling “The normalized value in BLU units (SPOT analysis, Myo5 SH3)” value:
1. SFIRKRAPTPPAPS  878.2 BLU
2. SYISRKYPRAPAFI  740.2 BLU
3. SSKIRPTPRKPSRM  673.3 BLU
4. TARNKKSPGGPRQR  593.2 BLU
5. TGKFRYMPFSPAGT  555.5 BLU
6. TLKKKKTPKKPIAA  535.4 BLU
7. SMDSKRKPSPPSQR  509.7 BLU
8. TKFTKPKPKQPVLP  445.1 BLU
9. SSVSKLKPSLPNKL  418.3 BLU
10. SIIPRIFPSTPGTI  368.8 BLU
11. SEMHRAAPETPRSI  322.4 BLU
12. STDHRGTPANPGRV  257.1 BLU
13. SKIPKSIPIIPYVL  243.1 BLU
14. TEVWRKVPMKPIFE  242.9 BLU
15. SFVTKYLPAAPVGS  214.9 BLU
16. TGESRKAPLIPLLK  214.2 BLU
17. SLTLKTLPRVPTDS  211.7 BLU
18. TLDEKNLPRLPTPF  205.2 BLU
19. SERRKALPKEPKKL  200.0 BLU
20. STNAKKDPFPPPKD  198.5 BLU
21. SNFKKRDPGLPDFQ  160.6 BLU
22. TKTDKSYPMCPVDA  150.0 BLU
23. SILRKSSPEEPFMS  144.2 BLU
24. SLGERFMPMAPEVY  139.8 BLU
25. SILNRCVPKRPTID  132.7 BLU
26. SVSEKTNPSSPSVS  126.7 BLU
27. TGGGRIVPGVPPGA  118.4 BLU
28. TINSRFYPPIPISE  76.4 BLU
29. SRYLKDHPNLPTPE  69.2 BLU
30. TDTTKVTPIVPVPI  48.0 BLU
31. TDLFKPLPEPPTEL  23.4 BLU

Reference: publication PMC314469, “Protein Interaction Networks by Proteome Peptide Scanning” (PLoS Biology, 2004)
